US20260363243A1 (priority 2022, published 2026)
Like-named read-outs stand apart in the source and are kept apart here.

Columns and labels:
[1] = test system: cucumber downy mildew; details: Table 3, data from Li, J. L. et al. 2020, cited from earlier work
[2] = test system: Phytophthora capsici; experiment: In vitro inhibition of hypha growth of oomycete pathogens (microplate, OD595): Phytophthora capsici; assay type: cell-based; details: for inhibition at 0.005 µg/mL / inhibition at 0.05 µg/mL / inhibition at 0.5 µg/mL / inhibition at 5 µg/mL: read-out: inhibitory activity on hypha growth
[3] = test system: Cucumber downy mildew (Pseudoperonospora cubensis); experiment: Field efficacy test for controlling cucumber downy mildew
Method: The test was carried out according to the Guidelines for the Field Efficacy Trials of Pesticides (Part 1): Fungicides Against Downy Mildew of Cucumber (GB/T17980.26-2000). The test site was a mature vegetable base of Hushu in Nanjing, Jiangsu Province. Cucumber downy mildew (Pseudoperonospora cubensis) was used as the target, oxathiapiprolin and Yin Fali were used as control agents. The test crops was cucumber and the variety was ‘Green Core’. The plots were arranged in a randomized block design, with each plot approximately 8 m^2 and each treatment replicated three times. The whole stem and leaf spray was employed, the test was carried out at the early stage of cucumber downy mildew occurrence, and the agents were applied twice consecutively, with the second application 5 days after the first one. The investigation method was to take one investigation point for every row of cucumbers in each treatment district, assess the severity of downy mildew of all leaves of all cucumber plants, and calculate the disease index and the prevention effect.

[4] = test system: Phytophthora sojae; experiment: In vitro inhibition of hypha growth of oomycete pathogens (microplate, OD595): Phytophthora sojae; assay type: cell-based; details: for inhibition at 0.005 µg/mL / inhibition at 0.05 µg/mL / inhibition at 0.5 µg/mL / inhibition at 5 µg/mL: read-out: inhibitory activity on hypha growth
[5] = test system: cucumber downy mildew; experiment: Activity in vivo for inhibiting cucumber downy mildew (potting method, greenhouse)
From the text: The test and investigation method refers to a SOP-SC-1098 cucumber downy mildew potting method in the fungicide section of Standard operation Specification for testing biological Activity of pesticides written by Kang Zhuo and Gu Baogen.

[6] = test system: Phytophthora nicotianae; experiment: In vitro inhibition of hypha growth of oomycete pathogens (microplate, OD595): Phytophthora nicotianae; assay type: cell-based; details: for inhibition at 0.005 µg/mL / inhibition at 0.05 µg/mL / inhibition at 0.5 µg/mL / inhibition at 5 µg/mL: Phytophthora nicotianae, read-out: inhibitory activity on hypha growth
[7] = test system: Phytophthora infestans; experiment: microbe, parasite or virus in culture; assay type: cell-based; details: for inhibition at 0.005 µg/mL / inhibition at 0.05 µg/mL / inhibition at 0.5 µg/mL / inhibition at 5 µg/mL: read-out: inhibitory activity on hypha growth
[8] = after the first pesticide application, 50 mg/L
[9] = after the second pesticide application, 50 mg/L
[10] = 0.005 mg/L, re-screening, Table 2
[11] = 0.02 mg/L, re-screening, Table 2
[12] = 0.078 mg/L, re-screening, Table 2
[13] = 0.312 mg/L, re-screening, Table 2
[14] = 1.25 mg/L, re-screening, Table 2

## O=C(CN1CCCCC1)N1CCC(c2nc(C3=NOC(c4c(F)cccc4F)C3)cs2)CC1 (stereo not drawn) [comparative 6]
[1]; 0.625 mg/L
  Control effect: E (0% ≤ E < 45%)
[1]; 2.5 mg/L
  Control effect: E (0% ≤ E < 45%)
[1]; 10 mg/L
  Control effect: E (0% ≤ E < 45%)

## Cc1cc(C(F)(F)F)nn1CC(=O)N1CCC(c2nc(C3=NOC(c4c(F)cccc4F)C3)cs2)CC1 (stereo not drawn) [OXA, oxathiapiprolin, reference compound]
[2]
  inhibition at 0.005 µg/mL: 90 to 100%
  inhibition at 0.05 µg/mL: 90 to 100%
  inhibition at 0.5 µg/mL: 90 to 100%
  inhibition at 5 µg/mL: 90 to 100%
[3]; [8]
  Average control effect: 36.02%
  Average disease index: 5.36
[3]; [9]
  Average control effect: 74.87%
  Average disease index: 8.59
[4]
  inhibition at 0.005 µg/mL: 90 to 100%
  inhibition at 0.05 µg/mL: 90 to 100%
  inhibition at 0.5 µg/mL: 90 to 100%
  inhibition at 5 µg/mL: 90 to 100%
[5]; [10]
  Control effect: A (90%≤A≤100%)
[5]; [11]
  Control effect: A (90%≤A≤100%)
[5]; [12]
  Control effect: A (90%≤A≤100%)
[5]; [13]
  Control effect: A (90%≤A≤100%)
[5]; 0.625 mg/L, Table 3
  Control effect: A (90% ≤ A ≤ 100%)
[5]; [14]
  Control effect: A (90%≤A≤100%)
[5]; 2.5 mg/L, Table 3
  Control effect: A (90% ≤ A ≤ 100%)
[5]; 10 mg/L, Table 3
  Control effect: A (90% ≤ A ≤ 100%)
[6]
  inhibition at 0.005 µg/mL: 90 to 100%
  inhibition at 0.05 µg/mL: 90 to 100%
  inhibition at 0.5 µg/mL: 90 to 100%
  inhibition at 5 µg/mL: 90 to 100%
[7]
  inhibition at 0.005 µg/mL: 90 to 100%
  inhibition at 0.05 µg/mL: 90 to 100%
  inhibition at 0.5 µg/mL: 90 to 100%
  inhibition at 5 µg/mL: 90 to 100%

## CC(C)CCC(=O)N1CCC(c2nc(C3=NOC(c4c(F)cccc4F)C3)cs2)CC1 (stereo not drawn) [comparative 1]
[1]; 0.625 mg/L
  Control effect: E (0% ≤ E < 45%)
[1]; 2.5 mg/L
  Control effect: B (75% ≤ B < 90%)
[1]; 10 mg/L
  Control effect: B (75% ≤ B < 90%)

## CCOC(CC(=O)N1CCC(c2nc(C3=NOC(c4c(F)cccc4F)C3)cs2)CC1)OC (stereo not drawn) [II-3]
[2]; 5, 0.5 and 0.05 mg/L, in words
  inhibitory activity compared with OXA: comparable to that of the control agent OXA
[2]
  inhibition at 0.005 µg/mL: 90 to 100%
  inhibition at 0.05 µg/mL: 90 to 100%
  inhibition at 0.5 µg/mL: 90 to 100%
  inhibition at 5 µg/mL: 90 to 100%
[3]; 50 mg/L, in words
  control effect compared with OXA and Yinfali: better than that of the control agents OXA and Yinfali
[3]; [8]
  Average control effect: 66.63%
  Average disease index: 2.80
[3]; [9]
  Average control effect: 79.72%
  Average disease index: 6.93
[3]; in words
  effect in controlling cucumber downy mildew in the field: good effect in controlling cucumber downy mildew, it can effectively protect new leaves and can effectively inhibit the spread of disease spots on the infected leaves
[4]; 5, 0.5 and 0.05 mg/L, in words
  inhibitory activity compared with OXA: comparable to that of the control agent OXA
[4]
  inhibition at 0.005 µg/mL: 75 to 90%
  inhibition at 0.05 µg/mL: 90 to 100%
  inhibition at 0.5 µg/mL: 90 to 100%
  inhibition at 5 µg/mL: 90 to 100%
[5]; 0.005 mg/L, in words
  efficacy compared with OXA: comparable to that of the control agent OXA
[5]; [10]
  Control effect: A (90%≤A≤100%)
[5]; [11]
  Control effect: A (90%≤A≤100%)
[5]; 0.078 mg/L, in words
  efficacy compared with dimethomorph and cyazofamid: superior to that of dimethomorph and cyazofamid
  efficacy compared with oxathiapiprolin: equivalent to that of oxathiapiprolin at the same concentration
[5]; 0.078 mg/L, re-screening
  Control effect: ≥ 90%
[5]; [12]
  Control effect: A (90%≤A≤100%)
[5]; [13]
  Control effect: A (90%≤A≤100%)
[5]; 0.625 mg/L, Table 3
  Control effect: A (90% ≤ A ≤ 100%)
[5]; 1.25 mg/L, Table 1
  Control effect: A (90%≤A≤100%)
[5]; [14]
  Control effect: A (90%≤A≤100%)
[5]; 2.5 mg/L, Table 3
  Control effect: A (90% ≤ A ≤ 100%)
[5]; 5 mg/L, Table 1
  Control effect: A (90%≤A≤100%)
[5]; 10 mg/L, Table 3
  Control effect: A (90% ≤ A ≤ 100%)
[5]; 20 mg/L, Table 1
  Control effect: A (90%≤A≤100%)
[5]; re-screening, in words
  bactericidal activity: excellent bactericidal activity
[6]
  inhibition at 0.005 µg/mL: 90 to 100%
  inhibition at 0.05 µg/mL: 90 to 100%
  inhibition at 0.5 µg/mL: 90 to 100%
  inhibition at 5 µg/mL: 90 to 100%
[6]; Pythium nicotianae, 5, 0.5 and 0.05 mg/L, in words
  inhibitory activity compared with OXA: comparable to that of the control agent OXA
[7]; 5, 0.5 and 0.05 mg/L, in words
  inhibitory activity compared with OXA: comparable to that of the control agent OXA
[7]
  inhibition at 0.005 µg/mL: 75 to 90%
  inhibition at 0.05 µg/mL: 90 to 100%
  inhibition at 0.5 µg/mL: 90 to 100%
  inhibition at 5 µg/mL: 90 to 100%

## CC/C=C/CC(=O)N1CCC(c2nc(C3=NOC(c4c(F)cccc4F)C3)cs2)CC1 (stereo not drawn) [comparative 2]
[1]; 0.625 mg/L
  Control effect: D (45% ≤ D < 60%)
[1]; 2.5 mg/L
  Control effect: B (75% ≤ B < 90%)
[1]; 10 mg/L
  Control effect: A (90% ≤ A ≤ 100%)

## O=C(CCO)N1CCC(c2nc(C3=NOC(c4c(F)cccc4F)C3)cs2)CC1 (stereo not drawn) [comparative 4]
[1]; 0.625 mg/L
  Control effect: E (0% ≤ E < 45%)
[1]; 2.5 mg/L
  Control effect: E (0% ≤ E < 45%)
[1]; 10 mg/L
  Control effect: D (45% ≤ D < 60%)

## O=C(CC1CCCCC1)N1CCC(c2nc(C3=NOC(c4c(F)cccc4F)C3)cs2)CC1 (stereo not drawn) [comparative 5]
[1]; 0.625 mg/L
  Control effect: E (0% ≤ E < 45%)
[1]; 2.5 mg/L
  Control effect: D (45% ≤ D < 60%)
[1]; 10 mg/L
  Control effect: A (90% ≤ A ≤ 100%)

## CO/C=C(\C)C(=O)N1CCC(c2nc(C3=NOC(c4c(F)cccc4F)C3)cs2)CC1 (stereo not drawn) [Compound I-7]
[5]; 5 mg/L, Table 1
  Control effect: B (75%≤B<90%)
[5]; 20 mg/L, Table 1
  Control effect: A (90%≤A≤100%)
